Results reported in article PMC10663846 (The Journal of Biological Chemistry, 2023).
Peptide text beside a SMILES is read from it.

Assays:
[1] = human serum diluted 1:4 in RPMI 1640, 37 °C, peptide 10 μg/ml from DMSO stock, 48 h time course, ESI-MS peak area normalized to Angiotensin I
Experimental: Human serum was diluted 1:4 in Gibco RPMI 1640 media (ThermoFisher Scientific, Cat. No. 11–875–093) and incubated at 37 °C for 15 min before peptide stock was added at final concentration of 10 μg/ml. Time points were taken at room temperature and mixed with 200 μl of 3% TFA before a 15 min incubation on ice. Samples were centrifuged at 16,000g for 2.5 min and the supernatant was prepared for C18 desalting by adding 100 μl of 20% acetonitrile, 2% TFA before storage at −20 °C overnight. Samples were processed through Pierce C18 spin columns (ThermoFisher Scientific, Cat. No. 89870) according to the manufacturer’s instructions. Desalted samples were dried under nitrogen and stored at −20 °C until mass spectrometry analysis.
For MALDI-TOF-MS analysis, samples were reconstituted in 200 μl of 0.1% formic acid. Samples were diluted 1:10 in a MALDI matrix containing a 50 fmol/μl solution of Angiotensin I as a control, spotted onto the plate at a volume of 1 μl, and run on an Axima Performance MALDI TOF/TOF mass spectrometer (Shimadzu Scientific Instruments). Data was visualized with Axima Launchpad 2.8 software (Shimadzu Scientific Instruments). For ESI-MS analysis, samples were run on an Orbitrap Exploris 480 (ThermoFisher Scientific). […] ThermoFisher’s Xcalibur 4.0 Data System was used for peptide quantification via peak area (normalized based on Angiotensin I abundance).

[2] = test system: OVCAR8 cells and human PBMCs co-culture, TNFα secretion; test: OVCAR8:PBMC co-culture, secreted TNFα (ELISA); assay type: cell-based; conditions: 1:10 OVCAR8:PBMC, 24 h, MN1.4 500, 100 or 10 μM, rPD-L1 1 μM
Experimental: The concentration of PBMCs required for a 1:10 OVCAR8:PBMC ratio was calculated from the OVCAR8 concentration.

Molecule: CC[C@H](C)[C@H](NC(=O)[C@H](CCSC)NC(=O)[C@H](CS)NC(=O)[C@H](CCCNC(=N)N)NC(=O)[C@H](Cc1ccc(O)cc1)NC(C)=O)C(=O)N[C@@H](CO)C(=O)N[C@@H](Cc1ccc(O)cc1)C(=O)NCC(=O)NCC(=O)N[C@@H](C)C(=O)N[C@@H](CC(=O)O)C(=O)N[C@@H](Cc1ccc(O)cc1)C(=O)N[C@@H](CCCCN)C(=O)N[C@@H](CCCNC(=N)N)C(=O)N[C@H](C(=O)N[C@H](C(=O)N[C@H](C(N)=O)C(C)C)[C@@H](C)O)[C@@H](C)CC
- serum modification products (MALDI-TOF-MS): 119 Da

Molecule: CC[C@H](C)[C@@H]1NC(=O)[C@H](CCSC)NC(=O)[C@H](C)NC(=O)[C@H](CCCNC(=N)N)NC(=O)[C@@H](NC(C)=O)CSSC[C@@H](C(N)=O)NC(=O)[C@H]([C@@H](C)O)NC(=O)[C@H]([C@@H](C)CC)NC(=O)[C@H](CCCNC(=N)N)NC(=O)[C@H](CCCCN)NC(=O)[C@H](Cc2ccc(O)cc2)NC(=O)[C@H](CC(=O)O)NC(=O)[C@H](C)NC(=O)CNC(=O)CNC(=O)[C@H](Cc2ccc(O)cc2)NC(=O)[C@H](CO)NC1=O [MN1.2] (HELM PEPTIDE1{[ac].C.R.A.M.I.S.Y.G.G.A.D.Y.K.R.I.T.C.[am]}$PEPTIDE1,PEPTIDE1,2:R3-18:R3$$$V2.0)
- serum stability, degradation after 48 h [1]: detected at very low levels

Molecule: Ac-YRCMISYGGADEKRITV-NH2 [MN_Null]
- TNFα levels compared to untreated co-culture control [2]: less immunosuppressive activity as compared to MN1.4
